Measurements: patent US7709645B2, “Pyrrolo-pyridine kinase modulators” (SGX Pharmaceuticals, Inc., priority 2004, dated 2010)

biological target: T1, Autophosphorylated AurA kinase (Homo sapiens, UniProt O14965); test: AurA Bioassay (luminescence-based enzyme assay, Kinase-Glo); format: biochemical; conditions: 10 μM ATP
T1 construct: made in house; host or cells: Sf9 insect cells
T1 sequence (O14965 1-403): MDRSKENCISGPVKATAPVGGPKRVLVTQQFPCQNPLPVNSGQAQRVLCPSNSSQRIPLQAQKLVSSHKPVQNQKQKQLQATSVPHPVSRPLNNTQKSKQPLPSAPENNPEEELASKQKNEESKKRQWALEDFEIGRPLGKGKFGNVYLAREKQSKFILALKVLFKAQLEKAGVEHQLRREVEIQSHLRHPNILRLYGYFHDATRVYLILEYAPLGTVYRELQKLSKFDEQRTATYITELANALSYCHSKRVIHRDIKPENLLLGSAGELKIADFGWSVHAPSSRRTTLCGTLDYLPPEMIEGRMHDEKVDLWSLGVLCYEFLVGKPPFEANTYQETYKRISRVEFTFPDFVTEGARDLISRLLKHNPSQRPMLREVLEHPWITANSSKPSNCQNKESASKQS
Text: In addition to the c-Abl PK/LDH coupled assay (above), homogeneous luminescence-based inhibitor screening assays were developed for c-Abl, MET, AurA, and PDK1 kinases (among others). Each of these assays made use of an ATP depletion assay (Kinase-Glo™, Promega Corporation, Madison, Wis.) to quantitate kinase activity. The Kinase-Glo™ format uses a thermostable luciferase to generate luminescent signal from ATP remaining in solution following the kinase reaction. The luminescent signal is inversely correlated with the amount of kinase activity.
Materials: Kemptide peptide substrate=LRRASLG (SEQ ID NO:2) (Biopeptide, San Diego, Calif.), ATP (Sigma Cat#A-3377, FW=551), HEPES buffer, pH 7.5, 10% Brij 35 (Calbiochem Cat#203728), MgCl2, Staurosporine (Streptomyces sp. Sigma Cat#85660-1MG), white Costar 384-well flat bottom plate (VWR Cat#29444-088), Autophosphorylated AurA kinase (see below), Kinase-Glo™ (Promega Cat#V6712).
Stock Solutions: 10 mM Kemptide peptide (7.72 mg/ml in water), stored at −20° C.; 100 mM HEPES buffer+0.015% Brij 35, pH 7.5 (5 ml 1M HEPES stock+75 μL 10% Brij 35+45 ml miliQH2O); 10 mM ATP (5.51 mg/ml in dH2O) stored at −20° C. (diluted 50 μl into total of 10 ml miliQH2O daily=50 μM ATP working stock); 100 mM MgCl2; […] Staurosporine, 2× Kinase-Glo™ reagent (made fresh or stored at −20° C.).
AurA Autophosphorylation Reaction: ATP and MgCl2 were added to 1-5 mg/ml AurA at final concentrations of 10 mM and 100 mM, respectively. The autophosphorylation reaction was incubated at 21° C. for 2-3 h. The reaction was stopped by the addition of EDTA to a final concentration of 50 mM, and samples were flash frozen with liquid N2 and stored at −80° C.
Standard Assay Setup for 384-well format (20 μl kinase reaction, 40 μl detection reaction): 10 mM MgCl2; 0.2 mM Kemptide peptide; […] test compound (in DMSO); 0.3 μg/ml Autophosphorylated AurA kinase; 10 μM ATP; 100 mM HEPES+0.015% Brij buffer. Positive controls contained DMSO with no test compound. Negative controls contained 5 μM staurosporine. The kinase reactions were initiated at time t=0 by the addition of ATP. Kinase reactions were incubated at 21° C. for 45 min, then 20 μl of Kinase-Glo™ reagent were added to each well to quench the kinase reaction and initiate the luminescence reaction. After a 20 min incubation at 21° C., the luminescence was detected in a plate-reading luminometer.
The Sf9 insect cell pellets (˜18 g) produced from 6 L of cultured cells expressing human Aurora-2 were resuspended in 50 mM Na Phosphate pH 8.0, 500 mM NaCl, 10% glycerol, 0.2% n-octyl-β-D-glucopyranoside (BOG) and 3 mM β-Mercaptoethanol (BME). One tablet of Roche Complete, EDTA-free protease inhibitor cocktail (Cat# 1873580) and 85 units Benzonase (Novagen Cat#70746-3)) were added per 1 L of original culture. Pellets were resuspended in approximately 50 ml per 1 L of original culture and were then sonicated on ice with two 30-45 sec bursts (100% duty cycle). Debris was removed by centrifugation and the supernatant was passed through a 0.8 μm syringe filter before being loaded onto a 5 ml Ni^2+ HiTrap column (Pharmacia). The column was washed with 6 column volumes of 50 mM Na Phosphate pH 8.0, 500 mM NaCl, 10% glycerol, 3 mM BME. The protein was eluted using a linear gradient of the same buffer containing 500 mM Imidazole. The eluant (24 ml) was cleaved overnight at 4° C. in a buffer containing 50 mM Na Phosphate pH 8.0, 500 mM NaCl, 10% glycerol, 3 mM BME and 10,000 units of TEV (Invitrogen Cat# 10127-017). […]

Compound | IC50 [nM]
CNC(=O)c1cncc(-c2cnc3[nH]cc(-c4ccccc4OC)c3c2)c1 [AE1] | 500 to 5000
COc1ccccc1-c1c[nH]c2ncc(-c3ccc[nH]3)cc12 [AE67] | 500 to 5000
COCCOc1ccc(-c2cnc3[nH]cc(-c4ccccc4OC)c3c2)cc1OCCOC [AE68] | 500 to 5000

Second part, the compound after the results:

IC50 [nM] | Compound
500 to 5000 | COc1ccccc1-c1c[nH]c2ncc(-c3ccc(S(N)(=O)=O)s3)cc12 [AE11]
500 to 5000 | COc1ccccc1-c1c[nH]c2ncc(-c3cccc(S(C)(=O)=O)c3)cc12 [AE13]

test system: Ba/F3-T315I cells; test: Ba/F3-T315I XTT Assay (cell survival); format: cell-based; conditions: 72 hours
Procedure: MV4-11 and THP cells were maintained in Iscove's Modified Dulbecco's Medium supplemented with 10% fetal bovine serum (FBS) and penicillin/streptomycin, Ba/F3 cells were maintained in RPMI 1640 supplemented with 10% FBS, penicillin/streptomycin and 5 ng/ml recombinant mouse IL-3.
Compounds were tested in the following assays in duplicate.
96-well XTT assay: Cells (e.g. BaF3 315I, M351I, or E255K cells) were grown in growth media containing various concentrations of compounds (duplicates) on a 96-well plate for 72 hours at 37° C. The starting cell number was 5000-8000 cells per well and volume was 120 μl. At the end of the 72-hour incubation, 40 μl of XTT labeling mixture (50:1 solution of sodium 3′-[1-(phenylamino-carbonyl)-3,4-tetrazolium]-bis(4-methoxy-6-nitro) benzene sulfonic acid hydrate and Electron-coupling reagent: PMS (N-methyl dibenzopyrazine methyl sulfate) were added to each well of the plate. After an additional 2-6 hours of incubation at 37° C., the absorbance reading at 405 nm with background correction at 650 nm was measured with a spectrophotometer.

Compound | IC50 [nM]
COc1ccccc1-c1c[nH]c2ncc(-c3ccc4[nH]cc(CC(=O)O)c4c3)cc12 [AE10] | < 100
